Reference: patent US11883194B2, “Method and system for measuring, predicting, and optimizing human cognitive performance” (priority 2015, dated 2024)

Experiment: caffeine effect (gPD) parameters of the alertness model for PVT performance
Type: in vivo, human
Conditions: beginning model parameter value (standard error)
From the text: In at least one embodiment, the model is as follows: Pc(t)=(S(t)+κC(t))*gPD(t,c) (1) where C and S denote the circadian and homeostatic processes of the two-process model at time t, respectively, and κ represents the circadian amplitude.
M0, k0, z, and ka denote an amplitude slope, a basal elimination rate, a decay constant, and an absorption rate, respectively.

SMILES: Cn1c(=O)c2c(ncn2C)n(C)c1=O [caffeine]
- M0 (amplitude slope) (PVT lapse statistic): 9.86 (1.80) g^−1
- Z (decay constant) (PVT lapse statistic): 1.63 (1.61) g^−1
- k0 (basal elimination rate) (PVT lapse statistic): 0.49 (0.17) h^−1
- M0 (amplitude slope) (PVT mean RT statistic): 3.59 (0.66) g^−1
- Z (decay constant) (PVT mean RT statistic): 1.63 (1.61) g^−1
- k0 (basal elimination rate) (PVT mean RT statistic): 0.49 (0.17) h^−1
- ka (capsule) (absorption rate) (PVT lapse statistic): 2.06 (0.36) h^−1
- ka (capsule) (absorption rate) (PVT mean RT statistic): 2.06 (0.36) h^−1
